{"source": "patent US20040157785A1", "about": "“Combination therapy comprising anti-diabetic and anticonvulsant agents” (priority 2000, published 2004)", "key": {"[1]": {"system": "patient with Type II diabetes", "experiment": "Case Study A: topiramate added to insulin (70/30) in a Type II diabetes patient", "assay_type": "in vivo, human", "description": "The ability of the compounds of formula I administered in combination with an anti-diabetic agent to treat Type II diabetes mellitus and Syndrome X is based on the following case studies. The patient was a person with a 6 year history of Type II diabetes. For the past four years the patient was being treated with insulin (70/30). At the start of treatment patient's weight was 236 lbs, measured cholesterol was 316 mg/dl and measured glucose was 166 mg/dl. The patient was started on Topiramate for treatment of seizures and titrated to 75 mg a day. […] After 16 months, patient's fasting glucose was 89 mg/dl."}, "[2]": {"system": "patient with Type II diabetes", "experiment": "Case Study B: topiramate added to Glucotrol (glipizide) in a Type II diabetes patient", "assay_type": "in vivo, human", "description": "The ability of the compounds of formula I administered in combination with an anti-diabetic agent to treat Type II diabetes mellitus and Syndrome X is based on the following case studies. The patient was a person with a 5 year history of Type II diabetes. At the start of treatment, patient was taking 40 mg/day Glucotrol (glipizide, a sulfonylurea) and weighed 293 lbs. The patient was titrated on topiramate to 50 mg/day. After 1 month of treatment, patient reported that home measured blood sugars had dropped from a baseline of 300 mg/dl to measured blood sugars of 140 mg/dl. After 2 months, the patient indicated average blood sugar levels of 80-140 mg/dl and weight loss to 272 lbs."}, "patient with diabetes": {"system": "patient with diabetes", "experiment": "Case Study C: topiramate added to Glucophage, DiaBeta and Rezulin in a diabetes patient", "assay_type": "in vivo, human", "description": "The ability of the compounds of formula I administered in combination with an anti-diabetic agent to treat Type II diabetes mellitus and Syndrome X is based on the following case studies. The patient was a person with an 8 year history of diabetes. Prior to treatment, patient's weight was 201 lbs, Hgb A1C was 9.3% and blood sugar was 309 mg/dl. Patient was taking Glucophage (metformin hydrochloride) at four 500 mg tablets/day (2 tablets in the morning, 1 tablet in the afternoon and 1 tablett at night, for a total of 2000 mg/day), DiaBeta (glyburide) at 10 mg twice a day (total of 20 mg/day) and Rezulin (troglitazone) at 200 mg/day. Patient was started on topiramate at 75 mg b.i.d (150 mg/day). […] After 15 months patient's weight was 190 lbs with blood sugars controlled on 100 mg topiramate in the morning, 200 mg topiramate at night (Total of 300 mg/day), DiaBeta at 10 mg twice a day and Rezulin at 200 mg once a day."}, "[3]": {"system": "patient with elevated blood sugars", "experiment": "Case Study D: topiramate with Amaryl (glimepiride) in a patient with elevated blood sugars", "assay_type": "in vivo, human", "description": "The ability of the compounds of formula I administered in combination with an anti-diabetic agent to treat Type II diabetes mellitus and Syndrome X is based on the following case studies. The patient was a person, with a history of elevated blood sugars and a weight of 188 lbs. At the time of initial treatment, patient's blood sugar was 426 mg/dl. Patient was started on topiramate, titrated to 100 mg once a day. The patient was also prescribed […] (glimepiride). After 3 months, patient's blood sugar averaged in the upper 100s, lab sugars measured at 138 mg/dl, cholesterol at 278 mg/dl, triglycerides at 212 mg/dl and HgbA1C at 6.7%. […] Patient weighed 160 lbs. Patient was able to stop taking the […] due to improved sugar control. Due to concerns about weight loss, topiramate was decreased to 100 mg/day. After 21 months, patient's weight was 170 lbs, blood sugars were reported doing well. Lab measured glucose was 115 mg/dl, cholesterol was measured at 236 mg/dl, triglycerides at 106 mg/dl and HgbA1C at 5.7%."}, "[4]": {"system": "markers of diabetes mellitus", "experiment": "Summary of the case studies: topiramate in combination with an anti-diabetic agent", "assay_type": "in vivo, human", "details": "oral administration in combination with an anti-diabetic agent"}, "[5]": {"system": "simple and complex partial seizures and secondarily generalized seizures", "details": "adjunctive therapy or monotherapy; cited from earlier work"}, "seizures [6]": {"system": "seizures", "details": "several rodent models of epilepsy; cited from earlier work"}, "seizures [7]": {"system": "seizures", "details": "animal model of kindled epilepsy; cited from earlier work"}, "[8]": {"details": "after 3 months, topiramate 100 mg once a day with Amaryl"}, "[9]": {"details": "after 3 months, topiramate 100 mg once a day with Amaryl, initial 426 mg/dl"}, "[10]": {"details": "after 21 months, topiramate 100 mg/day, Amaryl stopped"}, "[11]": {"details": "after one year, topiramate increased to 200 mg/day"}}, "note": "Where two headings read alike, the source gives them in different places.", "data": [{"smiles": "CC1(C)O[C@@H]2[C@@H](CO[C@@]3(COS(N)(=O)=O)OC(C)(C)O[C@@H]23)O1", "note": "[topiramate, 2,3:4,5-bis-O-(1-methylethylidene)-β-D-fructopyranose sulfamate]", "values": [{"measurement": "blood sugar (patient indicated)", "setting": "[1]; after 2 months, topiramate 75 mg a day with insulin (70/30), using the insulin less often", "result": "improved significantly"}, {"measurement": "fasting glucose", "setting": "[1]; after 16 months, with insulin (70/30), glucose at start 166 mg/dl", "result": 89, "unit": "mg/dL"}, {"measurement": "home measured blood sugars", "setting": "[1]; after 18 months, with insulin (70/30), previously 150 to 160 mg/dl", "result": "less than 120 mg/dl"}, {"measurement": "Hbg A1C", "setting": "[1]; after one year, topiramate 200 mg b.i.d. with insulin (70/30)", "result": 6.94, "unit": "%"}, {"measurement": "patient's weight", "setting": "[1]; after one year, topiramate 200 mg b.i.d. with insulin (70/30), start 236 lbs", "result": 225, "unit": "lbs"}, {"measurement": "home measured blood sugars", "setting": "[2]; after 1 month, topiramate 50 mg/day with Glucotrol 40 mg/day, baseline 300 mg/dl", "result": 140, "unit": "mg/dL"}, {"measurement": "average blood sugar levels", "setting": "[2]; after 2 months, topiramate 50 mg/day with Glucotrol 40 mg/day", "result": "80 to 140", "unit": "mg/dL"}, {"measurement": "weight", "setting": "[2]; after 2 months, topiramate 50 mg/day with Glucotrol, start 293 lbs", "result": 272, "unit": "lbs"}, {"measurement": "patient's weight", "setting": "patient with diabetes; after 15 months, topiramate 300 mg/day with DiaBeta and Rezulin, prior 201 lbs", "result": 190, "unit": "lbs"}, {"measurement": "blood sugars", "setting": "patient with diabetes; after 15 months, topiramate 300 mg/day, DiaBeta 10 mg twice a day, Rezulin 200 mg once a day", "result": "controlled"}, {"measurement": "blood sugars (patient indicated)", "setting": "patient with diabetes; topiramate 75 mg b.i.d (150 mg/day) with Glucophage, DiaBeta, Rezulin, prior blood sugar 309 mg/dl", "result": "doing better"}, {"measurement": "need for Glucophage (sugar control)", "setting": "patient with diabetes; topiramate 150 mg b.i.d (300 mg/day) with DiaBeta and Rezulin", "result": "able to stop Glucophage"}, {"measurement": "HgbA1C", "setting": "[3]; [8]", "result": 6.7, "unit": "%"}, {"measurement": "cholesterol", "setting": "[3]; [8]", "result": 278, "unit": "mg/dL"}, {"measurement": "triglycerides", "setting": "[3]; [8]", "result": 212, "unit": "mg/dL"}, {"measurement": "blood sugar averaged", "setting": "[3]; [9]", "result": "upper 100s"}, {"measurement": "lab sugars", "setting": "[3]; [9]", "result": 138, "unit": "mg/dL"}, {"measurement": "HgbA1C", "setting": "[3]; [10]", "result": 5.7, "unit": "%"}, {"measurement": "blood sugars (reported)", "setting": "[3]; [10]", "result": "doing well"}, {"measurement": "cholesterol", "setting": "[3]; [10]", "result": 236, "unit": "mg/dL"}, {"measurement": "lab measured glucose", "setting": "[3]; [10]", "result": 115, "unit": "mg/dL"}, {"measurement": "patient's weight", "setting": "[3]; [10]", "result": 170, "unit": "lbs"}, {"measurement": "triglycerides", "setting": "[3]; [10]", "result": 106, "unit": "mg/dL"}, {"measurement": "need for Amaryl (sugar control)", "setting": "[3]; after one year, topiramate 200 mg/day", "result": "able to stop taking the Amaryl"}, {"measurement": "patient weight", "setting": "[3]; after one year, topiramate 200 mg/day, start 188 lbs", "result": 160, "unit": "lbs"}, {"measurement": "cholesterol", "setting": "[3]; [11]", "result": 200, "unit": "mg/dL"}, {"measurement": "lab measured blood sugars", "setting": "[3]; [11]", "result": 141, "unit": "mg/dL"}, {"measurement": "triglycerides", "setting": "[3]; [11]", "result": 500, "unit": "mg/dL"}, {"measurement": "status of markers of diabetes mellitus (blood glucose, glycosylated hemoglobin, triglyceride levels)", "setting": "[4]", "result": "consistently improved"}, {"measurement": "efficacy in treating simple and complex partial seizures and secondarily generalized seizures", "setting": "[5]", "result": "effective"}, {"measurement": "seizure block", "setting": "seizures [6]", "result": "effectively block seizures"}, {"measurement": "seizure block", "setting": "seizures [7]", "result": "effectively block seizures"}]}]}
